In the oligonucleotide strings, read from the 5' end, every base follows the letter of its sugar. An asterisk marks phosphorothioate; unmarked linkages are phosphodiester. Other units and linkages are bracketed, terminal groups are in braces. A string of capitals states the bases alone. {D01} = GalNAc ligand D01, attached to sense strand by a phosphodiester bond; m = 2'-O-methyl; f = 2'-fluoro
How the values were obtained:
Transcriptome = assay: In vitro RNA sequencing study (off target risk); type: cell-based
Text: Transcriptome refers to a sum of all RNA transcripted from specific tissues or cells at a certain time or state, mainly including mRNA and non-encoding RNA. Transcriptome sequencing is to study all mRNA transcripted from specific tissues or cells during a certain period based on an Illumina sequencing platform, is a basis for gene functions and structure study, and plays an important role in understanding the development of organisms and the occurrence of diseases. With the development of gene sequencing technologies and reduction in sequencing cost, RNA-seq, with its advantages of high throughput, high sensitivity and wide application range, has become a main method for transcriptome study. The RNA-seq technical process mainly includes two parts: library construction and sequencing, and biological information analysis.
RNA was extracted from tissues or cells using a standard extraction method, and subsequently serious quality control was performed on RNA samples. The quality control method was mainly achieved by Agilent 2100 bioanalyzer to precisely detect the integrity of RNA.
mRNA was obtained mainly by the following two methods: one was to utilize the structural feature that most mRNA in eukaryotes had polyA tails to enrich mRNA with polyA tails using Oligo (dT) magnetic beads; and the other one was to remove ribosomal RNA from total RNA to obtain mRNA. Subsequently, the obtained mRNA was randomly fragmented using divalent cations in NEB Fragmentation Buffer, and library construction was carried out using either an NEB ordinary library construction method or a strand specific library construction method.
NEB ordinary library construction: a first strand of a cDNA was synthesized in an M-MuLV reverse transcriptase system by using fragmented mRNA as a template and random oligonucleotides as primers. Subsequently, the RNA strand was digested using RNaseH, and a second strand of the cDNA was synthesized in a DNA polymerase I system using dNTPs as a raw material. The purified double-stranded cDNA was subjected to end repair, A tail addition and sequencing linker linkage. About 250-300 bp cDNAs were screened using AMPure XP beads and subjected to PCR amplification, and the PCR product was purified again using AMPure XP beads to finally obtain a library. A kit for library construction was NEBNext® Ultra™ RNA Library Prep Kit for Illumina®.
Strand specific library construction: a method for synthesizing the first strand of cDNA was the same as the NEB ordinary library construction method except that when the second strand was synthesized, dTTP in dNTPs was replaced by dUTP, and then end repair, A tail addition, sequencing linker linkage and length screening of cDNA were similarly carried out. Subsequently, the second strand of cDNA containing U was digested using USER enzyme followed by PCR amplification to obtain the library. […] A kit used for the library construction was NEB Next® Ultra™ Directional RNA Library Prep Kit for Illumina®.
After library construction was completed, preliminary quantification was carried out using Qubit2.0 Fluorometer. The library was diluted to 1.5 ng/uL, and subsequently the insert size of the library was detected using Agilent 2100 bioanalyzer. After the insert size met the expectation, the effective concentration of the library was accurately quantified by QRT-PCR (the effective concentration of the library was higher than 2 nM) to ensure the quality of the library.
After library inspection was qualified, different libraries were subjected to Illumina sequencing after pooling according to effective concentration and target offline data volume requirements. The basic principle of sequencing was sequencing by synthesis. Four fluorescent labeled dNTPs and DNA polymerases as well as linker primers were added in the sequenced flow cell for amplification. […]

AGT mRNA = assay: Compound activity experiment in Huh7 cell line (transfection, AGT mRNA by qPCR); type: cell-based, human; settings: Huh7, RNAiMAX transfection, 24 h
Method: 1. Objective: this study aims to evaluate the inhibitory effect of the conjugate described in this patent on a target gene using a Huh7 cell line. The inhibitory activity of the compound on target gene AGT is evaluated based on the EC50 value of the compound as an index.
Huh7 cells were provided by Shanghai WuXi AppTec New Drug Development Co., Ltd. Hub7 cells were cultured in MEM medium containing 10% fetal bovine serum and 1% penicillin streptomycin.
1) On Day 1, a mixed solution of an RNAiMAX transfection reagent and Opti-MEM was prepared as needed in a ratio of RNAiMAX transfection reagent:Opti-MEM=1.5:48.5, and incubated for 15 min at room temperature;
2) For cells in each well, a certain amount of diluted compound was taken and added into an equal amount of RNAiMAX Optim-MEM medium to be mixed well, and then incubated for 15 min;
3) Huh7 cells were taken and washed with DPBS, digested with trypsin, and the density of the cells was adjusted to an appropriate density;
4) The cells were seeded into a 96-well plate at a density of 2,0000 cells/well while adding a mixture of 20 μL Opti-MEM RNAiMax and the compound into the cell culture plate, and the volume of the final medium for each well was 120 μL.
5) The cells were incubated for 24 h in an incubator under the conditions of 5% CO2 and 37° C. […]
The cDNA of the target gene was detected by qPCR. qPCR was carried out in a 384-well plate using GAPDH as an internal reference gene. […]
This method requires the introduction of the internal reference gene GAPDH, as the internal reference gene is expressed in all the cells and its product is necessary for maintaining cell survival; and the expression level or copy number of the genome in cells remains constant and is less affected by environmental factors. After qRT-PCR, the CT value of the internal reference will also be recorded, called Ct (GAPDH), and the CT value of the sample is called Ct (sample).

Conjugate 2: Double-stranded RNAi analog against AGT, D01 GalNAc ligand on sense strand; sense SEQ ID NO: 6, antisense SEQ ID NO: 2 containing Z (sense mA*mU*fCfCmAfCfAfAmUmGmAmGmAfGmUmAmCmA-{D01}; antisense CUCACAUGUACNCUCAUUGUGGAUGACGA; antisense: chemistry not given here; antisense strand modified, includes nucleotide analog Z, further chemistry not fully specified)
Downregulate Average (Transcriptome; number of downregulated genes, average): 658 | Downregulate N = 1 (Transcriptome; number of downregulated genes, replicate 1): 1006 | Downregulate N = 2 (Transcriptome; number of downregulated genes, replicate 2): 309 | Upregulate Average (Transcriptome; number of upregulated genes, average): 722 | Upregulate N = 1 (Transcriptome; number of upregulated genes, replicate 1): 1033 | Upregulate N = 2 (Transcriptome; number of upregulated genes, replicate 2): 410 | Total Average (Transcriptome; total regulated genes, average): 1379 | Total N = 1 (Transcriptome; total regulated genes, replicate 1): 2039 | Total N = 2 (Transcriptome; total regulated genes, replicate 2): 719 | Emax (remaining AGT mRNA) (AGT mRNA): 5% | EC50 (AGT mRNA; AGT mRNA, read-out: Absolute EC50): 5.92 pM | Log (concentration) (AGT mRNA; log of the absolute EC50 (matches nM)): −2.228

Reference: patent US20260071220A1, “CONJUGATE OF NUCLEOTIDE ANALOG-CONTAINING DOUBLE-STRANDED RNAI ANALOG” (BaseCure Therapeutics LLC, priority 2022, published 2026)
